Measurements from US20050159390A1, “Treatment and prevention of HIV and other viral infections” (priority 1998, published 2005).

Key:
[1] = tested on: TNFα; assay: TNFα production in latently infected promonocytic U1 cells, ELISA; assay type: cell-based; settings: read-out: Inhibition of TNFα Production % of Control
Description: TNFα production was determined by an enzyme linked immunosorbent assay (ELISA) in a competitive format, using a commercially available anti-TNFα antibody. Inhibition of TNFα production is reported as percent of saline control in Table 18 and was dose dependent.

[2] = tested on: HIV-1 MN; assay: P-24 assay, syncytia and CPE in infected PBMCs; assay type: cell-based
Description: PBMCs were isolated as described above and incubated with HIV-1 MN (NIH AIDS reagent program, catalog #137) at 37° C. for 3 hours in 15 mL tubes. Test groups included uninfected PBMCs, infected PBMCs with no N-glycolylneuraminic acid, and infected PBMCs plus N-glycolylneuraminic acid. […] Excess virus was removed by washing the cells with PBS one time then the cells were exposed to N-glycolylneuraminic acid. P24 output was measured using the DuPont P24 assay kit (optical density (OD) in Table 15). Syncytia formation was examined as well as cytopathic effects (CPE). […] Sample #7 (p24 123×10^6 pg HIV-1P24/ml) was excluded from the mean P24 output calculation due to a sampling error.

[3] = tested on: HT1080; assay: Cell proliferation in treated cell lines; assay type: cell-based, human; settings: treated cell line; 0 to 200 μM or 1000 μM
[4] = target: T1, gp120 (Human immunodeficiency virus type 1 group M subtype B, UniProt P05877); assay: Inhibition of gp120 binding, HIVMN to CEM-SS cells; set-up: species or system HIV
T1 construct: host or cells: HIV MN virus added to CEM-SS cells

[5] = tested on: Molt-4; assay: Cell proliferation in treated cell lines; assay type: cell-based, human; settings: treated cell line; 0 to 200 μM or 1000 μM
[6] = tested on: X4 strain LAI/IIIB; assay: RT activity in infected PBMCs treated with carbohydrates; assay type: cell-based, HIV; settings: summary of Table 17
Description: Reverse Transcriptase Activity Assay: A microtiter based reverse transcriptase (RT) reaction was utilized as described by Buckheit et al., (1991), AIDS Research and Human Retroviruses, 7: 295-302. Tritiated thymidine triphosphate (3H-TTP) was suspended in distilled H2O at 5 Ci/mL. Poly rA and oligo dT were prepared as a stock solution which was kept at −20° C. RT reaction buffer was prepared fresh on a daily basis and contained 125 μL 1M EGTA, 125 μL dH2O, 110 μL 10% SDS, 50 μL 1M Tris (pH 7.4), 50 μL 1M DTT, and 40 μL 1M MgCl2. These three solutions were mixed together in a ratio of 2 parts 3H-TTP, 1 part poly rA:oligo dT, and 1 part reaction buffer. Ten microliters of this reaction mixture were placed in a round bottom microtiter plate and 15 μL of virus containing supernatant were added and mixed. The plate was incubated at 37° C. in a water bath with a solid support to prevent submersion of the plate and incubated for 60 minutes. […] Opti-Fluor-O (Packard) was added to each sample and incorporated radioactivity was quantified utilizing a Wallac 1450 MicroBeta Plus liquid scintillation counter. […]
No carbohydrates were added to the control sample. RT activity was determined at 3, 6, 9, 13, 17, and 20 days post-infection (PI) with X4 strain LAI/IIIB.

[7] = tested on: HIV-1IIIB; assay: CEM-SS cell-based assay, inhibition of HIV-induced cell killing (XTT); settings: 3.2 μM to 1 mM
[8] = tested on: PBMCs; assay type: cell-based, human; settings: human, 6 days
Description: For the standard PBMC assay, PHA-P stimulated cells from at least two normal donors were pooled, diluted in fresh medium to a final concentration of 1×10^6 cells/mL, and plated in the interior wells of a 96 well round bottom microplate at 50 μL/well (5×10^4 cells/well). Test drug dilutions were prepared at a 2× concentration in microfuge tubes and 100 μL of each concentration was placed in appropriate wells in a standard format. A predetermined dilution of virus stock was placed in each test well (50 μL, final MOI≅0.1). Wells with cells and virus alone were used for virus control. Separate plates were prepared identically without virus for drug cytotoxicity studies using an XTT assay system. […]
Tetrazolium dye staining of screening plates: After 6 days of incubation (37° C. with 5% CO2), the test plates were analyzed by staining with the tetrazolium dye XTT (2,3-b (2-methoxy-4-nitro-5-sulfophenyl)-2H-tetrazolium-5-carboxanilide). XTT-tetrazolium is metabolized by mitochondrial enzymes of metabolically active cells to a soluble formazan product, allowing the rapid quantitative analysis of the inhibition of HIV-induced cell killing by anti-HIV compounds. […] Plates were sealed with adhesive plate sealers and inverted several times to mix the soluble formazan product and the plate was read spectrophotometrically at 450 nm with a Molecular Devices Vmax plate reader. […]

[9] = tested on: DU-145; assay: Cell proliferation in treated cell lines; assay type: cell-based, human; settings: treated cell line; 0 to 200 μM or 1000 μM
[10] = tested on: HSF; assay: Cell proliferation in treated cell lines; assay type: cell-based, Human; settings: treated cell line; 0 to 200 μM or 1000 μM
[11] = tested on: HIV-1RF; assay: CEM-SS cell-based assay, inhibition of HIV-induced cell killing (XTT); settings: 3.2 μM to 1 mM
Description: Cell Preparation: Prior to infection, CEM-SS cells were grown in complete tissue culture medium (RPMI 1640 medium with 10% heat-inactivated fetal bovine serum, 2 mM L-glutamine, 100 U/mL penicillin, 100 μg/mL streptomycin, 10 μg/mL gentamycin) and transferred to T-150 flasks. On the day preceding the assay, the cells were split 1:2 to assure the cells would be in an exponential growth phase at time of infection. On the day of assay, the cells were washed twice with tissue culture medium and resuspended in fresh tissue culture medium. […]
Virus Preparation: Pre-tittered aliquots of HIV-1ROJO and HIV-1RF were removed from the freezer (−80° C.) and thawed to room temperature in a biological safety cabinet. The virus was resuspended and diluted into tissue culture medium such that the amount of virus added to each well in a volume of 50 μL will be the amount determined to give complete cell killing at 6 days post-infection.
Tetrazolium dye staining of screening plates: After 6 days of incubation (37° C. with 5% CO2), the test plates were analyzed by staining with the tetrazolium dye XTT (2,3-b (2-methoxy-4-nitro-5-sulfophenyl)-2H-tetrazolium-5-carboxanilide). XTT-tetrazolium is metabolized by mitochondrial enzymes of metabolically active cells to a soluble formazan product, allowing the rapid quantitative analysis of the inhibition of HIV-induced cell killing by anti-HIV compounds. […]

[12] = tested on: HepG2; assay: Cell proliferation in treated cell lines; assay type: cell-based, human; settings: treated cell line; 0 to 200 μM or 1000 μM

With `O=C(CO)N[C@H]1[C@H]([C@H](O)[C@H](O)CO)OC(O)(C(=O)O)C[C@@H]1O` (some centres unmarked) [N-glycolylneuraminic acid] the inhibition at 0.1 µM ([1]; 0.1 μM) was 0%, the inhibition at 0.3 µM ([1]; 0.3 μM) was 0% and the inhibition at 10 µM ([1]; 10 μM) was 9.8%. The inhibition at 30 µM ([1]; 30 μM) was 22.6%, the inhibition at 100 µM ([1]; 100 μM) was 96% and the CPE ([2]; dilution 1:2) was “negative”. For the same compound, the Syncytia ([2]; dilution 1:2) was “negative”, the CPE ([2]; dilution 1:4) was “negative” and the Syncytia ([2]; dilution 1:4) was “negative”. For the same compound, the CPE ([2]; dilution 1:8) was “negative”, the Syncytia ([2]; dilution 1:8) was “negative” and the CPE ([2]; dilution 1:16) was “negative”. The Syncytia ([2]; dilution 1:16) was “negative”, the CPE ([2]; dilution 1:32) was “negative” and the Syncytia ([2]; dilution 1:32) was “negative”. For the same compound, the CPE ([2]; dilution 1:64) was “negative”, the Syncytia ([2]; dilution 1:64) was “negative” and the “% Confluency (day 5)” value [3] was 100%. The “Inhibition of gp120 Binding (% of control)” value (from here on “Inhibition … (% of control)”) ([4]; 20 μm/ml) was 9.8%, the “Inhibition … (% of control)” value ([4]; 80 μm/ml) was 57.6% and the “Inhibition … (% of control)” value ([4]; 200 μm/ml) was 86.8%. The “% Confluency (day 5)” value [5] was 50%, the “RT activity in treated cells (in words)” value [6] was “RT activity was decreased” and the anti-HIV activity [7] was “did not display anti-HIV activity”. For the same compound, the TC50 [8] was > 1000 µM, the “% Confluency (day 5)” value [9] was 100% and the “% Confluency (day 5)” value [10] was 100%. For the same compound, the anti-HIV activity [11] was “did not display anti-HIV activity” and the “% Confluency (day 5)” value [12] was 50%.
